Source: patent publication US20040220164A1, “Triaza compound immunoregulatory agents” (priority 2001, published 2004)
In brackets after ≈: the same amount, converted by molar mass. Like-named read-outs stand apart in the source and are kept apart here.

Experiments:
[1] = Cytotoxicity assay (trypan blue exclusion, propidium iodide); format: cell-based, human; settings: human
Method: Cytotoxicity Assay. Cellular toxicity of the compounds was measured by trypan blue exclusion and also by Propidium Iodide by flow cytometry after 3 or 4 days of incubation, in parallel with the CD4 antigen expression. The CC50 value of each CADA analog is the concentration (in μg/ml) required to reduce the viability of the cells by 50%.

HIV-1 strain NL4.3 = assay: Anti-HIV-1 assay in MT-4 cells (p24 Ag ELISA, Example 3); format: cell-based
Method: Antiviral Assays. For HIV-1, MT-4 cells were infected with the HIV-1 strain NL4.3. Briefly, five-fold dilutions of the compounds (in 100 μl) were added to 96-well flat bottom plates (Iwaki, Japan). Then, to each well, 7.5×10^4 MT-4 cells were added in 50 μl medium, followed by 50 μl of diluted HIV-1 stock (strain NL4.3). Cytopathic effect (CPE) induced by the virus was checked regularly microscopically. When strong CPE was observed (after 3 to 5 days of incubation) in untreated HIV-1 infected cells, the supernatant was collected, stored at −20° C. and analyzed for HIV-1 core antigen by p24 Ag ELISA (NEN™, PerkinElmer Life Sciences, Boston, Mass.). Finally, the IC50 value of the compounds (i.e., the concentration of the compound required for 50% reduction of HIV infection as measured by viral p24 antigen level in the supernatant of infected MT-4 cells) was calculated.

CD4 [2] = molecular target: T1, CD4 (Homo sapiens, UniProt P01730); assay: CD4 down-modulation, flow cytometry with FITC-conjugated anti-CD4 (SK3) mAb, SupT1 cells; format: cell-based; design: To study the effect of the CADA derivatives on surface CD4 antigen expression, MT-4 and SupT1 cells were incubated; endogenous in cells; host or cells: MT-4, SupT1, PBMC; settings: day 4, read-out: IC50 CD4 (50% inhibition of extracellular CD4 expression) (converted)
Method: (§1) Flow Cytometric Analyses. To study the effect of the CADA derivatives on surface CD4 antigen expression, MT-4 and SupT1 cells were incubated with a serial 5-fold dilution of the compounds (50, 10, 2, 0.4 and 0.08 μg/ml) or medium at 37° C. Cell surface CD4 antigen expression was analyzed at day 3 (MT-4) or day 4 (SupT1). Briefly, after washing with phosphate-buffered saline (PBS) containing 2% fetal calf serum (FCS), cells were incubated with FITC-conjugated anti-CD4 (SK3) mAb for 30 min at 4° C. As a negative control for a specific background staining, cells were stained in parallel with Simultest Control γ1/γ^2a (Becton Dickinson). Then the cells were washed, fixed with 1% formaldehyde and analyzed by flow cytometry in a FACScalibur (Becton Dickinson, San Jose, Calif., USA). Data were acquired and analyzed with CellQuest software (Becton Dickinson). For the calculation of the CD4 receptor expression, the mean fluorescence intensity (MFI) of each sample was expressed as percentage of the MFI of control cells (after subtracting the MFI of the isotype control). Finally, the IC50 value of the compounds (i.e., the concentration of the compound required for 50% inhibition of extracellular CD4 expression) was calculated.

HHV-7 (KHR strain) = assay: Anti-HHV-7 assay in SupT1 cells (antigen expression, flow cytometry, Example 3); format: cell-based; settings: SUP-T1; SupT1 cells; read-out: IC50 HHV-7 (50% reduction of HHV-7 antigen expression)
Method: For HHV-7, five-fold dilutions of the compounds were added in 500 μl culture medium in 24-well flat bottom plates (Iwaki, Japan), whereupon 2×10^5 SupT1 cells were added in 400 μl culture medium. After 30 min incubation at room temperature, 100 μl of HHV-7 stock was added to each well. HHV-7-infected and mock-infected SupT1 cells were cultured in a final volume of 1 ml medium in the absence of the compounds. On day 4, half of the medium and the cells were replaced and fresh medium without new compound was added. This procedure was repeated every 2 or 3 days. The CPE was checked regularly microscopically. When CPE was observed, the HHV-7 antigen expression was monitored by flow cytometry, as described previously (Zhang, Y. et al. (1999) “Selective activity of various antiviral compounds against HHV-7 infection Antiviral Res. 43, 23-35.)

CD4 [3] = molecular target: T1, CD4; assay: CD4 down-modulation, flow cytometry with FITC-conjugated anti-CD4 (SK3) mAb, MT-4 cells; format: cell-based; design: To study the effect of the CADA derivatives on surface CD4 antigen expression, MT-4 and SupT1 cells were incubated; endogenous in cells; host or cells: MT-4, SupT1, PBMC; settings: for IC50: MT-4 cells, day 3, read-out: IC50 CD4 (50% inhibition of extracellular CD4 expression) (converted); for CD4 down-modulating activity compared with CADA or parent analog (in words): structure-activity discussion of Table 5 (MT-4 and SupT1 cells); for CD4 down-modulating activity, fold less active than CADA: compared to CADA, MT-4 cells (stated for some compounds)
Method: as §1, with “Cell surface CD4 antigen expression was analyzed at day 3 (MT-4) or day 4 (SupT1).” left out

CD4 [4] = molecular target: T1, CD4; assay: Cell surface CD4 expression by flow cytometry (anti-CD4 mAb Leu3a-PE); format: cell-based; design: To study the effect of the CADA derivatives on surface CD4 antigen expression, MT-4 and SupT1 cells were incubated; endogenous in cells; host or cells: MT-4, SupT1, PBMC; settings: staurosporine together with CADA
Method: FIGS. 2A-2C. Surface CD4 expression in MT-4 cell line, SupT1 cell line and PBMCs after incubation with CADA hydrochloride (3.2 or 16 μM) for 1 and 4 days. (A) Cell surface CD4 expression of control MT-4 cells and MT-4 cells treated with CADA (3.2 μM) for 1 day or 4 days. (B) Cell surface CD4 expression of control SupT1 cells and SupT1 cells treated with CADA (3.2 μM) for 1 day or 4 days. (C) Cell surface CD4 expression of control PBMCs and PBMCs treated with CADA (16 μM) for 1 day or 4 days. The cells were stained with anti-CD4 mAb (Leu3a-PE). Percentages of fluorescent cells and MFI (mean fluorescence intensity) are indicated in each histogram.
FIG. 4. Comparison of the effects on CD4 modulation by ATA (24 μM), CADA hydrochloride (16 μM) and PMA (8 nM) in SupT1 cells after incubation with the compounds analyzed after 20 minutes, 4 hours, 1 day and 4 days.
Cells were incubated with CADA hydrochloride and the CD4 expression on the cell surface was analyzed. […] In peripheral blood mononuclear cells (PBMCs), the percentage of CD4 expression decreased to 0.2% after incubation with CADA (16 μM) for 4 days (FIG. 2).
Expression of various other surface antigens was also examined in MT-4 cells, SupT1 cells and PBMCs after incubation with CADA (16 μM) or CADA-free medium at 37° C. for 4 days. After washing with phosphate-buffered saline (PBS) containing 2% FCS(fetal calf serum), the cells were incubated with mAb (as indicated in Table 1) for 20 min at 4° C. Then the cells were washed, fixed with 1% formaldehyde and analyzed by flow cytometry. All mAbs were purchased from Becton-Dickinson (Erembodegem, Belgium).
CADA was compared with ATA and PMA with regard to their down-modulating effects. […] At day 4, the CD4 expression in SupT1 cells treated with CADA reduced to 1.2%.

[5] = MT-4 cells, read-out: CC50 (50% cytotoxic concentration)
[6] = SupT1 cells, read-out: CC50 (50% cytotoxic concentration)
[7] = Human immunodeficiency virus 1, MT4, MT-4 cells, read-out: IC50 HIV-1 (NL4.3), p24 Ag ELISA
[8] = MT-4 cells, MT4 cells, Table 6, unit inferred, read-out: CC50
[9] = SupT1 cells, Table 6, unit inferred, read-out: CC50
[10] = Human immunodeficiency virus 1, MT4 cells, Table 6, unit inferred, read-out: IC50(HIV-1)

| SMILES | IC50 (HIV-1 strain NL4.3; [7]) | IC50 (CD4 [2]) | IC50 (HHV-7 (KHR strain)) | IC50 (CD4 [3]) | CD4 down-modulating activity compared with CADA or parent analog (in words) (CD4 [3]) | CD4 down-modulating activity, fold less active than CADA (CD4 [3]) | CD4 down-regulating activity, fold less active than QJ036 (CD4 [3]; compared to QJ036) | IC50 (HIV-1 strain NL4.3; [10]) | CC50 [1, 5] | CC50 [1, 6] | CC50 [1, 8] | CC50 [1, 9] | effect of PKC blocker on the down-modulation of CD4 with CADA (CD4 [4]) |
| --- | --- | --- | --- | --- | --- | --- | --- | --- | --- | --- | --- | --- | --- |
| C=C1CN(S(=O)(=O)c2ccc(C)cc2)CCCN(S(=O)(=O)c2ccc(C)cc2)CCCN(S(=O)(=O)c2ccc(C)cc2)C1 [AS112] | > 10 µg/mL | > 77.4 µM | > 50 µg/mL | > 15.5 µM | negative effect |  |  |  | 27.8 µg/mL (≈ 43 µM) | > 50 µg/mL |  |  |  |
| Cc1ccc(S(=O)(=O)N2CCCN(Cc3ccccc3)CCCN(S(=O)(=O)c3ccc(C)cc3)CC(CCl)C2)cc1 [AS117] | 1.15 µg/mL (≈ 1.86 µM) | 2.41 µM | 0.78 µg/mL (≈ 1.26 µM) | 1.81 µM |  | 3 fold |  |  | 30.7 µg/mL (≈ 49.7 µM) | > 50 µg/mL |  |  |  |
| C=C1CN(S(=O)(=O)c2ccc(Br)cc2)CCCN(Cc2ccccc2)CCCN(S(=O)(=O)c2ccc(Br)cc2)C1 [AS-PB127] | 1.4 µg/mL (≈ 1.97 µM) | 2.49 µM | 0.88 µg/mL (≈ 1.24 µM) | 1.98 µM |  | 4 fold |  |  | 35.7 µg/mL (≈ 50.2 µM) | > 50 µg/mL |  |  |  |
| C=C1CN(S(=O)(=O)c2ccc(C)cc2)CCCN(C(=O)OCC)CCCN(S(=O)(=O)c2ccc(C)cc2)C1 [Compound 95-213] | 8.05 µg/mL (≈ 14.3 µM) | 17.1 µM | 0.68 µg/mL (≈ 1.21 µM) | 11.5 µM |  |  |  |  | > 50 µg/mL | > 50 µg/mL |  |  |  |
| CN[C@@H]1C[C@H]2O[C@@](C)([C@@H]1OC)n1c3ccccc3c3c4c(c5c6ccccc6n2c5c31)C(=O)NC4 [staurosporine, reference compound] |  |  |  |  |  |  |  |  |  |  |  |  | did not show any effect |

More lines, main results first:

| IC50 (HIV-1 strain NL4.3; [7]) | IC50 (CD4 [2]) | IC50 (HHV-7 (KHR strain)) | IC50 (CD4 [3]) | CD4 down-modulating activity compared with CADA or parent analog (in words) (CD4 [3]) | CD4 down-modulating activity, fold less active than CADA (CD4 [3]) | CD4 down-regulating activity, fold less active than QJ036 (CD4 [3]; compared to QJ036) | IC50 (HIV-1 strain NL4.3; [10]) | SMILES | CC50 [1, 5] | CC50 [1, 6] | CC50 [1, 8] | CC50 [1, 9] | effect of PKC blocker on the down-modulation of CD4 with CADA (CD4 [4]) |
| --- | --- | --- | --- | --- | --- | --- | --- | --- | --- | --- | --- | --- | --- |
| 4.82 µg/mL (≈ 8.8 µM) | 9.73 µM | 0.7 µg/mL (≈ 1.28 µM) | 8.78 µM |  |  | 4 fold |  | C=C1CN(S(=O)(=O)c2ccc(C)cc2)CCCN(CC(C)C)CCCN(S(=O)(=O)c2ccc(C)cc2)C1 [Compound 98-035] | > 50 µg/mL | > 50 µg/mL |  |  |  |
| > 50 µg/mL | > 85.8 µM | > 50 µg/mL | > 85.8 µM | complete loss of activity |  |  |  | C=C1CN(S(=O)(=O)c2ccc(C)cc2)CCCN(Cc2ccccn2)CCCN(S(=O)(=O)c2ccc(C)cc2)C1 [Compound 98-037] | > 50 µg/mL | > 50 µg/mL |  |  |  |
| > 10 µg/mL | > 75.3 µM | 1.09 µg/mL (≈ 1.64 µM) | 2.86 µM |  |  |  |  | Cc1ccc(S(=O)(=O)N2CCCN(S(=O)(=O)c3ccc(C)cc3)CC(C)(O)CN(S(=O)(=O)c3ccc(C)cc3)CCC2)cc1 [HJC241] | 32 µg/mL (≈ 48.2 µM) | > 50 µg/mL |  |  |  |
| 3.88 µg/mL (≈ 6.47 µM) | 5.28 µM | 1.94 µg/mL (≈ 3.23 µM) | 3.32 µM |  | 6 fold |  |  | Cc1ccc(S(=O)(=O)N2CCCN(Cc3ccccc3)CCCN(S(=O)(=O)c3ccc(C)cc3)CC(CO)C2)cc1 [HJC321] | 26.1 µg/mL (≈ 43.5 µM) | > 50 µg/mL |  |  |  |
|  |  |  |  |  |  |  | 6.7 µg/mL (≈ 10.1 µM) | C=C1CN(S(=O)(=O)c2ccc(C)cc2)CCCN(Cc2ccccc2)CCCN(S(=O)(=O)c2cccc3c(N(C)C)cccc23)C1 [KKD015, 9-Benzyl-3-methylene-1-(5-dimethylamino-1-naphthalenesulfonyl)-5-p-toluenesulfonyl-1,5,9-triazacyclododecane] |  |  | > 100 µg/mL | > 100 µg/mL |  |
|  |  |  |  |  |  |  | 1.15 µg/mL (≈ 1.72 µM) | C=C1CN(S(=O)(=O)c2ccc(C)cc2)CCCN(CC2CCCCC2)CCCN(S(=O)(=O)c2cccc3c(N(C)C)cccc23)C1 [KKD016, 9-methylcyclohexane-3-methylene-1-(5-dimethylamino-1-naphthalenesulfonyl)-5-p-toluenesulfonyl-1,5,9-triazacyclododecane] |  |  | 61.2 µg/mL (≈ 91.8 µM) | 27.4 µg/mL (≈ 41.1 µM) |  |
| > 10 µg/mL | > 85.6 µM | 4.43 µg/mL (≈ 7.59 µM) | > 17.1 µM | significantly decreased |  |  |  | Cc1ccc(S(=O)(=O)N2CCCN(Cc3ccccc3)CCCN(S(=O)(=O)c3ccc(C)cc3)CC(=O)C2)cc1 [MFS010] | 29.3 µg/mL (≈ 50.2 µM) | > 50 µg/mL |  |  |  |
